Assay results as given in US11584735B2, “Solid forms of a plasma kallikrein inhibitor and salts thereof” (KALVISTA PHARMACEUTICALS LIMITED, priority 2017, dated 2023).
Each block holds one molecule with its values, some of them ahead of it.

Legend:
[1] = Metabolic stability in human liver microsomes; assay type: in vitro ADME; details: human liver microsomes 1 mg/mL, 5 μM test compound, 37° C.
Experimental: The metabolic stability was determined using standard published methods (Obach RS (1999) Drug Metab Dispos 27(11); 1350-135). Human liver microsomes (1 mg/mL; Corning) were incubated with 5 μM test compound at 37° C. on a shaking platform (150 rpm). Samples were taken at 0 and 60 min. The percentage test compound remaining at 60 minutes was determined by ratio of LCMS peak areas.

thrombin = thrombin (Homo sapiens (Human), UniProt P00734); details: read-out: IC50 Thrombin; substrate at Km concentration
Experimental: (§1) Human serine protease enzymes plasmin, thrombin and trypsin were assayed for enzymatic activity using an appropriate fluorogenic substrate. Protease activity was measured by monitoring the accumulation of liberated fluorescence from the substrate over 5 minutes. The linear rate of fluorescence increase per minute was expressed as percentage (%) activity. The Km for the cleavage of each substrate was determined by standard transformation of the Michaelis-Menten equation.

Human KLK1 = Human KLK1 (Homo sapiens (Human), UniProt P06870); assay: Determination of the IC50 for KLK1; assay type: biochemical; details: 25° C., substrate H-DVal-Leu-Arg-AFC
Sequence of Human KLK1 (P06870 25-262): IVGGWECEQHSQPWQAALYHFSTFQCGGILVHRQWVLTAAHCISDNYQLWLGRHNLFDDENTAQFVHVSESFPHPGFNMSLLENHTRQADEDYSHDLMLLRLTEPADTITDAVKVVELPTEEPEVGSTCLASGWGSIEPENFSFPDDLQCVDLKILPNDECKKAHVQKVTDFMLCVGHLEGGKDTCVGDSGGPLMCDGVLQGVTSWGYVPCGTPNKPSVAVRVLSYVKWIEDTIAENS
Experimental: KLK1 inhibitory activity in vitro was determined using standard published methods (see e.g. Johansen et al., Int. J. Tiss. Reac. 1986, 8, 185; Shori et al., Biochem. Pharmacol., 1992, 43, 1209; Sturzebecher et al., Biol. Chem. Hoppe-Seyler, 1992, 373, 1025). Human KLK1 (Callbiochem) was incubated at 25° C. with the fluorogenic substrate H-DVal-Leu-Arg-AFC and various concentrations of the test compound. Residual enzyme activity (initial rate of reaction) was determined by measuring the change in optical absorbance at 410 nm and the IC50 value for the test compound was determined.

trypsin = assay: Enzyme selectivity: trypsin; assay type: biochemical, human; details: substrate at Km concentration
Experimental: as §1

Human FXIa = Human FXIa (Homo sapiens (Human), UniProt P03951); assay: Determination of the % inhibition / IC50 for FXIa; assay type: biochemical; details: 25° C., substrate Z-Gly-Pro-Arg-AFC
Sequence of Human FXIa (P03951 388-625): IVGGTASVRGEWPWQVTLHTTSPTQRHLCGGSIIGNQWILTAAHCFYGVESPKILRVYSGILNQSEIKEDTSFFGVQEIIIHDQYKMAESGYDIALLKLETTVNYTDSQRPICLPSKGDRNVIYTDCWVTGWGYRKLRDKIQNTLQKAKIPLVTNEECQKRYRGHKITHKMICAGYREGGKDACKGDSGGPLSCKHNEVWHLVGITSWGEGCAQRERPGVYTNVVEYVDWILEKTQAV
Sequence of Human FXIa (P03951 19-387 partner): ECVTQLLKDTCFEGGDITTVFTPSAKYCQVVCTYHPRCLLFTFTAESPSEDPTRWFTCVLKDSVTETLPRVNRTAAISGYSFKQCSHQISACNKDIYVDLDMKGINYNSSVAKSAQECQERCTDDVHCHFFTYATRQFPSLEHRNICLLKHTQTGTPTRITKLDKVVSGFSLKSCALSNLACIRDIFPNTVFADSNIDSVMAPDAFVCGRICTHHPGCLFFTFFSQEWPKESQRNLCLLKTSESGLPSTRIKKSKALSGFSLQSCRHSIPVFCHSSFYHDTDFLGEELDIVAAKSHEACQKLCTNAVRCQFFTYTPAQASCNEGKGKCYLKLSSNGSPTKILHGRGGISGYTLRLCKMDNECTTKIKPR

plasmin = plasmin (Homo sapiens (Human), UniProt P00747); details: read-out: IC50 Plasmin; substrate at Km concentration
Sequence of plasmin (P00747 581-810): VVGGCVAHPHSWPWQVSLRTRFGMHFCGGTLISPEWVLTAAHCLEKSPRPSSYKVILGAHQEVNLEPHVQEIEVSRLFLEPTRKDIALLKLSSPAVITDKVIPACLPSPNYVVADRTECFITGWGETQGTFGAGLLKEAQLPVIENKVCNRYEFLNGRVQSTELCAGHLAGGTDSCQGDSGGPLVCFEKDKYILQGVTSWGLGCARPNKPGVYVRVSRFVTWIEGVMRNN
Sequence of plasmin (P00747 97-580 partner): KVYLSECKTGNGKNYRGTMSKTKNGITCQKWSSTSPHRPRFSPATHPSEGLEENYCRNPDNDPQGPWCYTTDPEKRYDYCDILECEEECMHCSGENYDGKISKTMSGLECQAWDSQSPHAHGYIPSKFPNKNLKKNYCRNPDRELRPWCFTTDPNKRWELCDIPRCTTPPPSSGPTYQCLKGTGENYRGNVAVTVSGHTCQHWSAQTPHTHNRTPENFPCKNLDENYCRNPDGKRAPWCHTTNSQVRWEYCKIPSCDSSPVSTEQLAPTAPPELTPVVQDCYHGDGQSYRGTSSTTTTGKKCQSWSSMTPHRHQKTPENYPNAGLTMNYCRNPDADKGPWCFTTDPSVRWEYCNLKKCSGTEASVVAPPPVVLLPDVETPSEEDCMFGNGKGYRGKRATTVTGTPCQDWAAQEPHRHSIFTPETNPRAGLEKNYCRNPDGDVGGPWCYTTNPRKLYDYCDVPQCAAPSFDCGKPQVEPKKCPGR
Experimental: as §1

Human Factor XIIa = Human Factor XIIa (Homo sapiens (Human), UniProt P00748); assay: Determination of the IC50 for FXIIa; assay type: biochemical; details: 25° C., substrate H-DPro-Phe-Arg-AFC
Sequence of Human Factor XIIa (P00748 373-615): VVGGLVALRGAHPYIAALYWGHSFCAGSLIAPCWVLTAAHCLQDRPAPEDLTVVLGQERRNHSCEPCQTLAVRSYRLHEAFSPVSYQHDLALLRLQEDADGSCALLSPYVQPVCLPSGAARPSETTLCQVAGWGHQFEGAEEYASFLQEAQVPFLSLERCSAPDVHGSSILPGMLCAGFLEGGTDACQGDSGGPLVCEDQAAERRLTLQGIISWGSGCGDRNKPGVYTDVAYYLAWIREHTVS
Experimental: Factor XIIa inhibitory activity in vitro was determined using standard published methods (see e.g. Shori et al., Biochem. Pharmacol., 1992, 43, 1209; Baeriswyl et al., ACS Chem. Biol., 2015, 10 (8) 1861; Bouckaert et al., European Journal of Medicinal Chemistry 110 (2016) 181). Human Factor XIIa (Enzyme Research Laboratories) was incubated at 25° C. with the fluorogenic substrate H-DPro-Phe-Arg-AFC and various concentrations of the test compound. Residual enzyme activity (initial rate of reaction) was determined by measuring the […] and the IC50 value for the test compound was determined.

diabetic rats = details: cited from earlier work
rats = details: systemic administration; cited from earlier work
[2] = tested on: LPS-induced disseminated intravascular coagulation; details: cited from earlier work
[3] = tested on: intrinsic pathway of coagulation; details: in vitro; cited from earlier work
blood = details: contacting blood with the inhibitor; cited from earlier work
[4] = In vitro permeability, Caco-2 model; assay type: in vitro ADME; details: human, apical to basolateral, 37° C.
Experimental: In vitro permeability was determined using the Caco-2 model for oral absorption. The methodology was adapted from standard published methods (Wang Z, Hop C. E., Leung K. H. and Pang J. (2000) J Mass Spectrom 35(1); 71-76). The Caco-2 monolayers were established in a Biocoat™ HTS fibrillar collagen 24 well multiwell insert system (1.0 μm, PET membrane, Corning 354803) in which 200,000 cells were seeded into each insert and maintained over 3 days before being utilised in the permeability assay. For the assay, 50 μM test compound is added to the apical side of the inserts and incubated for 1 hour at 37° C. on a shaking platform (120 rpm). Apical to basolateral transport was determined by measuring the test article in both compartments by LCMS following the 1 hour incubation. The integrity of the Caco-2 monolayers was confirmed by two methods, (i) comparison of pre- and post-experiment transepithelial electrical resistance (TEER) and, (ii) assessment of Lucifer Yellow flux.

% remaining at 60 minutes [1]: 25% | IC50 (thrombin): > 40 µM | IC50 (Human KLK1): > 40 µM | IC50 (trypsin): > 40 µM | IC50 (Human FXIa): > 40 µM | IC50 (plasmin): > 40 µM | IC50 (Human Factor XIIa): > 40 µM
Molecule: COCc1nn(Cc2ccc(Cn3cc(F)ccc3=O)cc2)cc1C(=O)NCc1nccc(OC)c1F [Compound of Formula A, 1-({4-[(5-fluoro-2-oxopyridin-1-yl)methyl]phenyl}methyl)-N-[(3-fluoro-4-methoxypyridin-2-yl)methyl]-3-(methoxymethyl)pyrazole-4-carboxamide]

Molecule: N=C(N)c1ccc(CNC(=O)c2cnn(Cc3ccccc3)c2)cc1 [ASP-440]
Effect on retinal vascular permeability and retinal blood flow abnormalities (diabetic rats): ameliorated both retinal vascular permeability and retinal blood flow abnormalities | Hematoma expansion (rats): reduced hematoma expansion

Molecule: Cl.NCC1CCC(C(=O)N[C@@H](Cc2ccccc2)C(=O)Nc2ccc(CC(=O)O)cc2)CC1 (stereo partly shown) [PKSI-527]
Effect on platelet count, fibrinogen level and FDP level [2]: significantly suppressed the decrease in platelet count and fibrinogen level as well as the increase in FDP level

Molecule: Ecallantide
Contact activated induced coagulation [3]: delay contact activated induced coagulation | Activated clotting time (ACT) (blood): increase in activated clotting time

IC50 (Human KLK1): > 40 µM | IC50 (Human FXIa): > 40 µM | IC50 (Human Factor XIIa): > 40 µM | Papp at 1 h, 50 μM [4]: 9 ×10⁻⁶ cm/s
Molecule: COCc1nn(Cc2ccc(Cn3ccccc3=O)cc2)cc1C(=O)NCc1nccc(OC)c1F [Example 41 of WO2016/083820, N-[(3-fluoro-4-methoxypyridin-2-yl)methyl]-3-(methoxymethyl)-1-({4-[(2-oxopyridin-1-yl)methyl]phenyl}methyl)pyrazole-4-carboxamide]
